Test results as given in ChEMBL document CHEMBL1121842, “Preparation and antibacterial activity of delta 1-thienamycin” (1981).
Activity calls are given as the source filed them. The rule behind the calls is not given here.

Test system: Staphylococcus aureus
Test: Tested for antibacterial activity against Staphylococcus aureus by disc-diffusion antibacterial assay; Inactive
Assay type: functional, organism-based

In the case of C[C@@H](O)[C@H]1C(=O)N2[C@@H](C(=O)O)C(SCCN)=C[C@H]12, the inhibition is reported as “inactive”.
